≈ marks a conversion by molar mass, not a printed value. Like-named read-outs stand apart in the source and are kept apart here.
Key:
[1] = Aqueous solubility at pH 6.8 or pH 1.2; type: physicochemical; settings: aqueous solution
human recombinant TRPV1 = biological target: T1, human recombinant TRPV1 (Homo sapiens, UniProt Q8NER1); experiment: pH-based assay, Protocol 2 (hpH-CHO), Ca2+ influx by Fura-2 AM/FDSS-3000 in TRPV1/CHO cells; type: cell-based; settings: H2SO4 agonist, pH 5.0-5.1, mean ± standard error of the mean (number of trials), read-out: TRPV1 IC50 Potency, Human pH CHO (hpH-CHO)
T1 construct: using primers designed surrounding the complete hTRPV1 open reading frame; expressed in transfected cells; host or cells: CHO-K1 cells stably transfected with pcDNA3.1(-)-hVR1 plasmid
T1 sequence (Q8NER1 whole entry): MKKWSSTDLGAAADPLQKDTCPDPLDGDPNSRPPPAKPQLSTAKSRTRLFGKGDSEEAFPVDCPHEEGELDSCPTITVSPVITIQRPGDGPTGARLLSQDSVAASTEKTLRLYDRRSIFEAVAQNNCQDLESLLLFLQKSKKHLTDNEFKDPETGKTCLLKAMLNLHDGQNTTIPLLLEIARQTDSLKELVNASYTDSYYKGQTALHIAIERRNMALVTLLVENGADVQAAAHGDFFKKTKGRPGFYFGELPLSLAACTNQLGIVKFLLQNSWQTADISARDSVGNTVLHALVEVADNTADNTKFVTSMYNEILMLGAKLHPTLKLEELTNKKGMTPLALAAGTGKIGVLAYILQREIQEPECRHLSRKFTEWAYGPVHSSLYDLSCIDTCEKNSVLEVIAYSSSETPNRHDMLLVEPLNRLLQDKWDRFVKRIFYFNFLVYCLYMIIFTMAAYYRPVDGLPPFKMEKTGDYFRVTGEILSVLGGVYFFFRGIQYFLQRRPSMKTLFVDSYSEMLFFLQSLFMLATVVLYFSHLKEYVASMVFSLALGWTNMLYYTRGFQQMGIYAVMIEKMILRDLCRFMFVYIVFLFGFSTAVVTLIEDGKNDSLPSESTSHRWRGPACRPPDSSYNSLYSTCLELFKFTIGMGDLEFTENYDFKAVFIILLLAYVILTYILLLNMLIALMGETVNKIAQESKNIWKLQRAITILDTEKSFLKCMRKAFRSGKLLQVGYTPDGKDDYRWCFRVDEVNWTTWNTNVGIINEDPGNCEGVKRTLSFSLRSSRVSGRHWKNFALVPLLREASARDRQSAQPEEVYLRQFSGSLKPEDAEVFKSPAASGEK
Text: For Protocol 2, a Chinese Hamster Ovary cell line (CHO) that has been engineered to constitutively express human recombinant TRPV1 was used (TRPV1/CHO cells). The TRPV1/CHO cell line was generated as described below.
The resulting PCR products were purified from agarose gels using Gel Band Purification Kit (GE Healthcare Bioscience) and were subcloned into pCR-Blunt vector (Invitrogen). The cloned cDNA was fully sequenced using a fluorescent dye-terminator reagent (BigDye Terminator ver3.1 Cycle Sequencing Kit, Applied Biosystems) and ABI Prism 3100 genetic analyzer (Applied Biosystems). The pCR-Blunt vector containing the hTRPV1 cDNA was subjected to restriction digestion with EcoR1. […] The sequence of the cDNA encoding TRPV1 is available at GenBank accession number AJ277028. […]
(5) The Fura-2 fluorescent intensity was monitored at a wavelength of 340 nm and at 380 nm, respectively, at a rate of 0.5 Hz for a total of 240 seconds. […]
(6) Fluorescence intensity ratio refers to the fluorescence intensity at 340 nm over the fluorescence intensity at 380 nm at a particular time point. […]
(7) Maximal signal ratios from each well were calculated as output data using the FDSS-3000 analysis program. Data were analyzed using Excel (Microsoft) and XLfit (idbs) software.

[2] = pH 1.2, simulated gastric fluid, read-out: aqueous solubility at pH 1.2
[3] = pH 6.8, aqueous buffer, read-out: aqueous solubility at pH 6.8

Row | SMILES | solubility [1, 2] [µM] | solubility [1, 3] [µM] | IC50 (human recombinant TRPV1) [nM]
1 | O=C(Nc1ccc(C(F)(F)F)c(F)c1)N1CCC(F)(c2ncccc2Cl)CC1 [Compound 209] | 9.3 (≈ 3.9 µg/mL) | 1 (≈ 0.42 µg/mL) | 
2 | O=C(Nc1ccc(C(F)(F)F)c(F)c1)N1CC=C(c2ncccc2Cl)CC1 [Compound 213] | 39.6 (≈ 15.8 µg/mL) | 0.8 (≈ 0.32 µg/mL) | 
3 | O=C(Nc1ccc(C(F)(F)F)c(Cl)c1)N1CC=C(c2ncccc2F)CC1 [Compound 215] | 9.6 (≈ 3.84 µg/mL) | 0.6 (≈ 0.24 µg/mL) | 
4 | O=C(Nc1ccc(OC(F)(F)F)c(-c2ccccc2)c1)N1CC=C(c2ncc(CO)cc2Cl)CC1 [Compound D3] |  |  | 39.8 ± 2.2
5 | O=C(Nc1ccc(C(F)(F)F)c(Cl)c1)N1CCC(F)(c2ncc([C@H](O)CO)cc2F)CC1 [Compound Q3] |  |  | 5.3 ± 1

Source: patent US8575199B2, “Formula (IA″) compounds comprising (piperidin-4-yl)pyridine or (1,2,3,6-tetrahydropyridin-4-4yl) as TRPV1 antagonists” (Purdue Pharma L.P., priority 2007, dated 2013)
